This experiment deals with Rattus norvegicus. As to the kind of experiment: Anti-hypertensive activity in fructose fed-induced hypertensive rat assessed as increase in ionized calcium level in serum at 20 mg/kg administered once daily for 28 days. Type of experiment: functional. The conditions noted are these: time 28 day.

`C=C1/C(=C\C=C2/CCC[C@]3(C)[C@@H]([C@H](C)CCCC(C)(C)O)CC[C@@H]23)C[C@@H](O)C[C@@H]1O` [CALCITRIOL]: the Activity was found to be 1.44 mM.
